Test system: ds17 (17 base-pair duplex-DNA)
Assay: Fluorescence titration with ds17
Assay type: binding
Conditions: 0.25 μM compound, cacodylate buffer + 100 mM KCl, λex=340 nm
Method: The quadruplex-over duplex-selectivity is evaluated through fluorescence titrations by comparison of experiments carried out with 22AG (see above) and with a short duplex-DNA: ds17, which is a 17 base-pair duplex-DNA that represents a biological sequence used in previous studies (28); the sequences of the two complementary strands are the following: [5′-CCAGTTCGTAGTAACCC-3′]/[5′-GGGTTACTACGAACTGG-3′]. Duplex-structure is prepared by heating the two corresponding complementary strands at 90° C. for 5 min in a 10 mM sodium cacodylate buffer pH 7.3, 100 mM KCl followed by a slow cooling over 6 hrs. Concentrations are determined by UV-Vis measurements (after thermal denaturation, 5 min at 85° C.) at 260 nm before use.

c1cc(-c2cnc(-c3cccc(-c4cnco4)n3)o2)nc(-c2cnc(-c3cccc(-c4cnco4)n3)o2)c1 [compound 3, 2,6-bis{2-[6-(oxazol-5-yl)pyridin-2-yl]oxazol-5-yl}pyridine]
fluorescence of compound upon addition of ds17: do not result in a progressive quench of the fluorescence

From patent US20110201648A1, “POLY-HETEROARYL DERIVATIVES FOR THE TREATMENT OF CANCER” (INSTITUT CURIE, priority 2008, published 2011)
